pIC50: −log10 of the molar value. Read-outs that look alike come from different tables or passages of the source.
Columns and labels:
human N-type Ca channel [1] = target: T1, human N-type Ca channel (Homo sapiens, UniProt Q00975); assay: Calcium influx assay (FDSS), KCl depolarization, Fluo8 dye; type: cell-based; design: host or cells: HEK 293; conditions: HEK 293 cells expressing human N-type Ca channel; 100 mM KCl; read-out: N Type IC50 Data FDSS
Method: All cell culture reagents were procured from HyClone and other reagents were from Fisher. Recombinant HEK 293 cells expressing human N-type Ca channel (Millipore) were maintained in DMEM F12 containing 10% FBS and selection antibiotics at 37 °C in 5% CO2.
Cells were incubated at 30 °C in 5% CO2 overnight. The medium was removed and cells were loaded with Fluo8 dye (AAT Bioquest) at 37 °C and 30 °C, 30 min each in darkness. Cells were washed four times with wash buffer (16 mM Herep pH 7.2, 2 mM CaCl2, 1 mM MgCl2, 5 mM glucose, 140 mM choline chloride and 2 mM KCl) leaving 15 µL buffer after the last wash. Compounds of Formula (I), serially diluted, were added to the cell plate. The plates were incubated in darkness for 15 min. Cells were depolarized with 100 mM KCl and Ca influx was measured.

human N-type Ca channel [2] = target: T1, human N-type Ca channel; assay: Electrophysiological response, QPatch (depolarization -80 mV to +20 mV)
[3] = N Type IC50 Data Qpatch Pulse=1, Pulse=1, concentration range 0.01-1 µM
[4] = N Type IC50 Data Qpatch Pulse=15, Pulse=15, concentration range 0.01-1 µM
[5] = Pulse=1, concentration range 0.01-0.3 µM
[6] = Pulse=15, concentration range 0.01-0.3 µM
[7] = read-out: Qpatch Pulse=1 (percent inhibition)
[8] = read-out: N Type IC50 Data Qpatch Pulse=15, Pulse=15, concentration range 0.01-1 µM
[9] = N Type IC50 Data Qpatch Pulse=1, Pulse=1, concentration range 0.3-10 µM
[10] = N Type IC50 Data Qpatch Pulse=15, Pulse=15, concentration range 0.3-10 µM

T1 sequence (Q00975 whole entry): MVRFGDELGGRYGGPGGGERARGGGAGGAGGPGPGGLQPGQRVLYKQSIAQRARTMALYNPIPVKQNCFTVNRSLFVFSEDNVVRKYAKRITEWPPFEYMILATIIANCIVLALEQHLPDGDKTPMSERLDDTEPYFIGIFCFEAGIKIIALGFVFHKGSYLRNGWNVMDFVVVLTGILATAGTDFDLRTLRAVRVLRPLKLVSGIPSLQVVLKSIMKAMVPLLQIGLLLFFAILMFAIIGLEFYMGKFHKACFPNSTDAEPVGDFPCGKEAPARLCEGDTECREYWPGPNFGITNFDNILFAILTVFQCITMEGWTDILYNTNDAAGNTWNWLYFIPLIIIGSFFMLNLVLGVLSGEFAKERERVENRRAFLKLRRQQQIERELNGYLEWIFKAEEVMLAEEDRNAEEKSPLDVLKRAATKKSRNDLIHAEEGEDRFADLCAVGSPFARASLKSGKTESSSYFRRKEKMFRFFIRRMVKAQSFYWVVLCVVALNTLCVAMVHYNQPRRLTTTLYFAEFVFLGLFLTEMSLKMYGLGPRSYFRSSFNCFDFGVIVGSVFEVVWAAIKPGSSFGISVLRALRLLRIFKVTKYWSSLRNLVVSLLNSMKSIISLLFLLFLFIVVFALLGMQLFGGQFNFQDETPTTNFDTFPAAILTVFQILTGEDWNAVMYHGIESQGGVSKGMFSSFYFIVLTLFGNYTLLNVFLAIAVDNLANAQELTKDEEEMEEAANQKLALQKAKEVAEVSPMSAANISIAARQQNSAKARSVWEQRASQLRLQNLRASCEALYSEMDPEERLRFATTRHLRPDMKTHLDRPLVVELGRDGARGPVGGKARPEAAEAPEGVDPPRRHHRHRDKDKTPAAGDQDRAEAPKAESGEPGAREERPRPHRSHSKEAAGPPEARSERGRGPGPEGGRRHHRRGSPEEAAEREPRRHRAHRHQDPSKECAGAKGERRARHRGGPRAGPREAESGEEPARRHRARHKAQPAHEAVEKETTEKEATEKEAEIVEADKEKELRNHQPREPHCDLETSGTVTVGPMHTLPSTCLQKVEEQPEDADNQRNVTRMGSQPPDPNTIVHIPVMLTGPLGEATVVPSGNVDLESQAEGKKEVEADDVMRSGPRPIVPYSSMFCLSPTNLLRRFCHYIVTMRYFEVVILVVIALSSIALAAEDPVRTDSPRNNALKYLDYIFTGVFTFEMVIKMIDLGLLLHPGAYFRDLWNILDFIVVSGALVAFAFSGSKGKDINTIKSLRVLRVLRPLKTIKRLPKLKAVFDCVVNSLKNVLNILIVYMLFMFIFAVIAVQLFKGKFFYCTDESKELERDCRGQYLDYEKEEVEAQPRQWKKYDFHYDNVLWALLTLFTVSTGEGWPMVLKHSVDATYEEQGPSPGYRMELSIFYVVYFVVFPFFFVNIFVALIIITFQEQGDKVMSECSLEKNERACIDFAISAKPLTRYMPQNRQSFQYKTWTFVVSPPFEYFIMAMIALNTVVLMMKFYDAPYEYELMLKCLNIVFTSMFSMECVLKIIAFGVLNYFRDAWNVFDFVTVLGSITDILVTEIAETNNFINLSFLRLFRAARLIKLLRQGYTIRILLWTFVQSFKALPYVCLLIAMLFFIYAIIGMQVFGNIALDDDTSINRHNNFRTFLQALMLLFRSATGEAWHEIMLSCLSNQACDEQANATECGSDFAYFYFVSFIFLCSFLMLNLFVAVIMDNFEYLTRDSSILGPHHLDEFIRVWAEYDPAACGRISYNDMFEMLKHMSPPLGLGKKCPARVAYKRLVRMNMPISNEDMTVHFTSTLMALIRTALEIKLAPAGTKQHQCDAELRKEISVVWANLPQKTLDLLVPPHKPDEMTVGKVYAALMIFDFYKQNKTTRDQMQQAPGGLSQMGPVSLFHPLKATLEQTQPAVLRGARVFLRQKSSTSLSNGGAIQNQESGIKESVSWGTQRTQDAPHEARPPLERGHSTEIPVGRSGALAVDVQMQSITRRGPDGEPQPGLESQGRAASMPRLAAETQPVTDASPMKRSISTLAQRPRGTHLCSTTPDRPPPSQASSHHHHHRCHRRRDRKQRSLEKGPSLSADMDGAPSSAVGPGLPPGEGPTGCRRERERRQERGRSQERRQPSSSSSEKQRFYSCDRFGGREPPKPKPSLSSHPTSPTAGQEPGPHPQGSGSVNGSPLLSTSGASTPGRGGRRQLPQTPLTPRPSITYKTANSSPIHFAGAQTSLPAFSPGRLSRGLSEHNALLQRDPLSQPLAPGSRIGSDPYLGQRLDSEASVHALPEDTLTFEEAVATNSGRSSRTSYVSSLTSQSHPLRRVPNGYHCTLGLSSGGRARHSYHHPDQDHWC
T1 sequence (P54284 whole entry partner): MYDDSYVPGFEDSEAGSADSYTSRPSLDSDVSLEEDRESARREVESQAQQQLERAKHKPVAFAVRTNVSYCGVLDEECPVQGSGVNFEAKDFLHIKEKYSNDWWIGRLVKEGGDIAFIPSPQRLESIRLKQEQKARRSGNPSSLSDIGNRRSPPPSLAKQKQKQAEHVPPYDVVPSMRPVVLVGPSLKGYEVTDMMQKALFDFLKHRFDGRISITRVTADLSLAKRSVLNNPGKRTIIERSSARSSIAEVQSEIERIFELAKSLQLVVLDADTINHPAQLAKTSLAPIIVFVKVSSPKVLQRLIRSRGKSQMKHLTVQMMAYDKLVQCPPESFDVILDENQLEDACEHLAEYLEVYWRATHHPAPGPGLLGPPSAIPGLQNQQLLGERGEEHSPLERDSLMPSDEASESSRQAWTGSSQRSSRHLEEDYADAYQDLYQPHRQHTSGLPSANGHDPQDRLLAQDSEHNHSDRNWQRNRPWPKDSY
T1 sequence (P54289 25-956 partner limits assumed): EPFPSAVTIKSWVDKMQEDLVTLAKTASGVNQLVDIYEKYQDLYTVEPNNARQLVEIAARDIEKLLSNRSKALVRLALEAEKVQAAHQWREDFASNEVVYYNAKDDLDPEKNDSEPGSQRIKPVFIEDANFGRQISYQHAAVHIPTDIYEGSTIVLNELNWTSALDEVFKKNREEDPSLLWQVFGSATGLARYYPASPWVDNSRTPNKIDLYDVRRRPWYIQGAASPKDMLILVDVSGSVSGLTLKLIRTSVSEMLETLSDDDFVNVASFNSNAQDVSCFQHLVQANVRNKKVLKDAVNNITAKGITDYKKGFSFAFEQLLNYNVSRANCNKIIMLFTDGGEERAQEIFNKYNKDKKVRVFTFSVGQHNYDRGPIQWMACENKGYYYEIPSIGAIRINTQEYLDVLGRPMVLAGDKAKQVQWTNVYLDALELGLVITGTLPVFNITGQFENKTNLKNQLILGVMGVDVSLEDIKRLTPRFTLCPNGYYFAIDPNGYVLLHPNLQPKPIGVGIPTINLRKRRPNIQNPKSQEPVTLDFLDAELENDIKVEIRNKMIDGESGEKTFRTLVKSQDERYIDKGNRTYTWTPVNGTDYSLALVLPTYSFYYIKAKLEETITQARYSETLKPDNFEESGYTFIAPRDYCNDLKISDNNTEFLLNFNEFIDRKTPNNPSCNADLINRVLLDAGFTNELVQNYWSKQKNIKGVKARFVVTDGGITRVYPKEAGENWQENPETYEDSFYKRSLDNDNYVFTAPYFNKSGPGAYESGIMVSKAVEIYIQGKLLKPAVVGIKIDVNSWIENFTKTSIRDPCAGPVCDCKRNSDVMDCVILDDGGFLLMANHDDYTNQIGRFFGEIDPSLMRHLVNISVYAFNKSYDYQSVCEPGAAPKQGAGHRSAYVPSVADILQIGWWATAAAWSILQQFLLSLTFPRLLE
T1 sequence (P54289 957-1103 partner limits assumed): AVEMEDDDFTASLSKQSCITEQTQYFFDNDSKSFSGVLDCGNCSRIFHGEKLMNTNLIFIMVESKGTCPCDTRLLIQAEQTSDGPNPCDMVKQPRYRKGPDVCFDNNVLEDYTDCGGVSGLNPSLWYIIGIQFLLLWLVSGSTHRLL

## Cn1cnnc1-c1nc(C2CC(C)(C)OC(C)(C)C2)cn1-c1ccc(Cl)cc1 [Compound 26, 3-(1-(4-chlorophenyl)-4-(2,2,6,6-tetramethyltetrahydro-2H-pyran-4-yl)-1H-imidazol-2-yl)-4-methyl-4H-1,2,4-triazole]
Human N-type Ca channel [1]
  pIC50: 5.24
Human N-type Ca channel [2]; [3]
  pIC50: < 6.00
Human N-type Ca channel [2]; [4]
  pIC50: < 6.00

## COc1ncccc1-c1nc(C2CC(C)(C)OC(C)(C)C2)cn1Cc1ccccc1Cl [Compound 27, 3-(1-(2-chlorobenzyl)-4-(2,2,6,6-tetramethyltetrahydro-2H-pyran-4-yl)-1H-imidazol-2-yl)-2-methoxypyridine]
Human N-type Ca channel [1]
  pIC50: 5.19
Human N-type Ca channel [2]; N Type IC50 Data Qpatch Pulse=15, Pulse=15, concentration range 0.01-0.3 µM
  pIC50: 5.72
Human N-type Ca channel [2]; [5]
  N Type IC50 Data Qpatch Pulse=1: poor fit(0.01-0.3 µM)

## COc1ncccc1-c1nc(C2CC(C)(C)OC(C)(C)C2)cn1Cc1ccc(Cl)cc1 [Compound 28, 3-(1-(4-chlorobenzyl)-4-(2,2,6,6-tetramethyltetrahydro-2H-pyran-4-yl)-1H-imidazol-2-yl)-2-methoxypyridine]
Human N-type Ca channel [1]
  pIC50: 5.79
Human N-type Ca channel [2]; [5]
  N Type IC50 Data Qpatch Pulse=1: poor fit(0.01-0.3 µM)
Human N-type Ca channel [2]; [6]
  N Type IC50 Data Qpatch Pulse=15: poor fit(0.01-0.3 µM)

## COc1ncccc1-c1nc(C2CC(C)(C)OC(C)(C)C2)cn1-c1ccc(C#N)c(C(F)(F)F)c1 [Compound 29, 4-(2-(2-methoxypyridin-3-yl)-4-(2,2,6,6-tetramethyltetrahydro-2H-pyran-4-yl)-1H-imidazol-1-yl)-2-(trifluoromethyl) benzonitrile]
Human N-type Ca channel [1]
  pIC50: 6.31
Human N-type Ca channel [2]; [5]
  N Type IC50 Data Qpatch Pulse=1: poor fit(0.01-0.3 µM)
Human N-type Ca channel [2]; [6]
  N Type IC50 Data Qpatch Pulse=15: poor fit(0.01-0.3 µM)

## COc1ncccc1-c1nc(C2CC(C)(C)OC(C)(C)C2)cn1-c1ccc(F)cc1F [Compound 30, 3-(1-(2,4-difluorophenyl)-4-(2,2,6,6-tetramethyltetrahydro-2H-pyran-4-yl)-1H-imidazol-2-yl)-2-methoxypyridine]
Human N-type Ca channel [1]
  pIC50: 6.49
Human N-type Ca channel [2]; [7]
  inhibition at 10 µM: 67%
Human N-type Ca channel [2]; read-out: Qpatch Pulse=15 (percent inhibition)
  inhibition at 10 µM: 35%

## COc1ncccc1-c1nc(C2CC(C)(C)OC(C)(C)C2)cn1-c1cccc(F)c1F [Compound 31, 3-(1-(2,3-difluorophenyl)-4-(2,2,6,6-tetramethyltetrahydro-2H-pyran-4-yl)-1H-imidazol-2-yl)-2-methoxypyridine]
Human N-type Ca channel [1]
  pIC50: 6.11
Human N-type Ca channel [2]; N Type IC50 Data Qpatch Pulse=1, Pulse=1, concentration range 0.01-0.3 µM
  pIC50: 5.80
Human N-type Ca channel [2]; [6]
  N Type IC50 Data Qpatch Pulse=15: poor fit(0.01-0.3 ,u.M)

## COc1ccccc1-c1nc(C2CC(C)(C)OC(C)(C)C2)cn1-c1cccc(C#N)c1 [Compound 32, 3-(2-(2-methoxyphenyl)-4-(2,2,6,6-tetramethyltetrahydro-2H-pyran-4-yl)-1H-imidazol-1-yl)benzonitrile]
Human N-type Ca channel [1]
  pIC50: 6.56
Human N-type Ca channel [2]; [3]
  pIC50: < 6.00
Human N-type Ca channel [2]; [8]
  pIC50: < 6.00

## COc1cnccc1-c1nc(C2CC(C)(C)OC(C)(C)C2)cn1-c1ccc(F)c(F)c1 [Compound 33, 4-(1-(3,4-difluorophenyl)-4-(2,2,6,6-tetramethyltetrahydro-2H-pyran-4-yl)-1H-imidazol-2-yl)-3-methoxypyridine]
Human N-type Ca channel [1]
  pIC50: 6.34
Human N-type Ca channel [2]; [3]
  pIC50: < 6.00
Human N-type Ca channel [2]; [8]
  pIC50: < 6.00

## COc1cc(-n2cc(C3CC(C)(C)OC(C)(C)C3)nc2-c2ccccc2OC)ccc1C#N [Compound 34, 2-methoxy-4-(2-(2-methoxyphenyl)-4-(2,2,6,6-tetramethyltetrahydro-2H-pyran-4-yl)-1H-imidazol-1-yl)benzonitrile]
Human N-type Ca channel [1]
  pIC50: 5.79
Human N-type Ca channel [2]; [8]
  pIC50: < 6.00

## COc1ccccc1-c1nc(C2CC(C)(C)OC(C)(C)C2)cn1-c1ccc(C#N)cc1F [Compound 36, 3-fluoro-4-(2-(2-methoxyphenyl)-4-(2,2,6,6-tetramethyltetrahydro-2H-pyran-4-yl)-1H-imidazol-1-yl)benzonitrile]
Human N-type Ca channel [1]
  pIC50: 7.40
Human N-type Ca channel [2]; [3]
  pIC50: 6.42
Human N-type Ca channel [2]; [8]
  pIC50: < 6.00

## COc1ccc(-n2cc(C3CC(C)(C)OC(C)(C)C3)nc2-c2ccccc2OC)cc1C#N [Compound 37, 2-methoxy-5-(2-(2-methoxyphenyl)-4-(2,2,6,6-tetramethyltetrahydro-2H-pyran-4-yl)-1H-imidazol-1-yl)benzonitrile]
Human N-type Ca channel [1]
  pIC50: 6.37
Human N-type Ca channel [2]; read-out: N Type IC50 Data Qpatch Pulse=1, Pulse=1, concentration range 0.01-1 µM
  pIC50: < 6.00
Human N-type Ca channel [2]; [8]
  pIC50: < 6.00

## COc1ccccc1-c1nc(C2CC(C)(C)OC(C)(C)C2)cn1-c1ccc(Cl)cn1 [Compound 39, 5-chloro-2-(2-(2-methoxyphenyl)-4-(2,2,6,6-tetramethyltetrahydro-2H-pyran-4-yl)-1H-imidazol-1-yl)pyridine]
Human N-type Ca channel [1]
  pIC50: 6.79
Human N-type Ca channel [2]; [9]
  pIC50: 5.77
Human N-type Ca channel [2]; [10]
  pIC50: 5.72

## COc1ncccc1-c1nc(C2CC(C)(C)OC(C)(C)C2)cn1-c1ccc(F)c(F)c1 [Compound 40, 3-(1-(3,4-difluorophenyl)-4-(2,2,6,6-tetramethyltetrahydro-2H-pyran-4-yl)-1H-imidazol-2-yl)-2-methoxypyridine]
Human N-type Ca channel [1]
  pIC50: 6.09
Human N-type Ca channel [2]; [10]
  pIC50: 5.71
Human N-type Ca channel [2]; [7]
  inhibition at 10 µM: 52%

## COc1ccccc1-c1nc(C2CC(C)(C)OC(C)(C)C2)cn1-c1ccc(Cl)c(F)c1 [Compound 41, 1-(4-chloro-3-fluorophenyl)-2-(2-methoxyphenyl)-4-(2,2,6,6-tetramethyltetrahydro-2H-pyran-4-yl)-1H-imidazole]
Human N-type Ca channel [1]
  pIC50: 6.88
Human N-type Ca channel [2]; [10]
  pIC50: 6.22
Human N-type Ca channel [2]; [7]
  inhibition at 10 µM: 71%

## COc1ccccc1-c1nc(C2CC(C)(C)OC(C)(C)C2)cn1-c1ccc(F)c(F)c1 [Compound 42, 1-(31,4-difluorophenyl)-2-(2-methoxyphenyl)-4-(2,2,6,6-tetramethyltetrahydro-2H-pyran-4-yl)-1H-imidazole]
Human N-type Ca channel [1]
  pIC50: 6.71
Human N-type Ca channel [2]; [9]
  pIC50: 5.59
Human N-type Ca channel [2]; [10]
  pIC50: 5.97

## COc1ncccc1-c1nc(C2CC(C)(C)OC(C)(C)C2)cn1-c1ccc(C#N)cc1 [Compound 43, 4-(2-(2-methoxypyridin-3-yl)-4-(2,2,6,6-tetramethyltetrahydro-2H-pyran-4-yl)-1H-imidazol-1-yl)benzonitrile]
Human N-type Ca channel [1]
  pIC50: 6.54
Human N-type Ca channel [2]; [10]
  pIC50: 5.12
Human N-type Ca channel [2]; [7]
  inhibition at 10 µM: 34%

## COc1ncccc1-c1nc(C2CC(C)(C)OC(C)(C)C2)cn1-c1ccc(Cl)c(F)c1 [Compound 44, 3-(1-(4-chloro-3-fluorophenyl)-4-(2,2,6,6-tetramethyltetrahydro-2H-pyran-4-yl)-1H-imidazol-2-yl)-2-methoxypyridine]
Human N-type Ca channel [1]
  pIC50: 6.85
Human N-type Ca channel [2]; [9]
  pIC50: 5.54
Human N-type Ca channel [2]; [10]
  pIC50: 5.51

## COc1ccccc1-c1nc(C2CC(C)(C)OC(C)(C)C2)cn1-c1ccc(F)c(Cl)c1 [Compound 45, 1-(3-chloro-4-fluorophenyl)-2-(2-methoxyphenyl)-4-(2,2,6,6-tetramethyltetrahydro-2H-pyran-4-yl)-1H-imidazole]
Human N-type Ca channel [1]
  pIC50: 6.83
Human N-type Ca channel [2]; [9]
  pIC50: 5.66
Human N-type Ca channel [2]; [10]
  pIC50: 6.17

## COc1ncccc1-c1nc(C2CC(C)(C)OC(C)(C)C2)cn1-c1ccc(F)c(Cl)c1 [Compound 46, 3-(1-(3-chloro-4-fluorophenyl)-4-(2,2,6,6-tetramethyltetrahydro-2H-pyran-4-yl)-1H-imidazol-2-yl)-2-methoxypyridine]
Human N-type Ca channel [1]
  pIC50: 6.59
Human N-type Ca channel [2]; [10]
  pIC50: 5.60

## COc1nccnc1-c1nc(C2CC(C)(C)OC(C)(C)C2)cn1-c1ccc(F)cc1 [Compound 47, 2-(1-(4-fluorophenyl)-4-(2,2,6,6-tetramethyltetrahydro-2H-pyran-4-yl)-1H-imidazol-2-yl)-3-methoxypyrazine]
Human N-type Ca channel [1]
  pIC50: 5.81
Human N-type Ca channel [2]; [3]
  pIC50: < 6.00
Human N-type Ca channel [2]; [8]
  pIC50: < 6.00

## COc1ncccc1-c1nc(C2CC(C)(C)OC(C)(C)C2)cn1-c1cccc(C#N)c1 [Compound 48, 3-(2-(2-methoxypyridin-3-yl)-4-(2,2,6,6-tetramethyltetrahydro-2H-pyran-4-yl)-1H-imidazol-1-yl)benzonitrile]
Human N-type Ca channel [1]
  pIC50: 5.27
Human N-type Ca channel [2]; [3]
  pIC50: 6.65
Human N-type Ca channel [2]; [4]
  pIC50: 6.07
